Results reported in ChEMBL document CHEMBL4334551, “Discovery of a New Sulfonamide Hepatitis B Capsid Assembly Modulator” (ACS Med Chem Lett, 2020).

Legend:
Hepatitis B virus [1] = test: Antiviral activity in HBV infected in human HepAD38 cells assessed as reduction in viral replication incubated for 65 hrs by RT-PCR analysis; format: functional, organism-based; details: HePAD38, 65 h
[2] = Cytotoxicity against human HepAD38 cells assessed as reduction in cell viability incubated for 65 hrs by EZ-Cytox cell viability assay; format: cell-based
[3] = AUClast in Sprague-Dawley rat at 5 mg/kg, po measured upto 24 hrs by LC/MS/MS analysis; format: ADME, organism-based; parameters: dose 5 mg/kg, time < 24 hr, route oral; details: in vivo
[4] = AUC in Sprague-Dawley rat at 5 mg/kg, po measured upto 24 hrs by LC/MS/MS analysis; format: ADME, organism-based; parameters: dose 5 mg/kg, time < 24 hr, route oral; details: in vivo
Cytochrome P450 2D6 = Cytochrome P450 2D6 (Homo sapiens, UniProt P10635); test: Inhibition of human CYP2D6 using dextromethorphan as substrate by LC/MS/MS analysis; format: ADME
[5] = Half life in Sprague-Dawley rat at 5 mg/kg, po measured upto 24 hrs by LC/MS/MS analysis; format: ADME, organism-based; details: in vivo
[6] = Tmax in Sprague-Dawley rat at 5 mg/kg, po measured upto 24 hrs by LC/MS/MS analysis; format: ADME, organism-based; details: in vivo
[7] = AUClast in Sprague-Dawley rat at 5 mg/kg, iv measured upto 24 hrs by LC/MS/MS analysis; format: ADME, organism-based; parameters: time < 24 hr, dose 5 mg/kg, route intravenous; details: in vivo
[8] = Stability in human plasma assessed as compound remaining at 5 uM incubated for 4 hrs by LC/MS/MS analysis; format: ADME, cell-free; details: read-out: Stability
[9] = Stability in rat liver microsomes assessed as compound remaining at 1 uM incubated for 30 mins by LC/MS/MS analysis; format: ADME, Microsome; details: read-out: Stability
[10] = Stability in rat liver microsomes assessed as half life at 1 uM incubated for 30 mins by LC/MS/MS analysis; format: ADME, Microsome
[11] = Clearance in Sprague-Dawley rat at 5 mg/kg, iv measured upto 24 hrs by LC/MS/MS analysis; format: ADME, organism-based; details: in vivo
[12] = Protein binding in human plasma assessed as compound remaining at 5 uM incubated for 4 hrs by LC/MS/MS analysis; format: ADME, cell-free; details: read-out: PPB (converted)
[13] = target: T1, Voltage-gated inwardly rectifying potassium channel KCNH2 (Homo sapiens, UniProt Q12809); test: Inhibition of human ERG expressed in human HEK293 cells by patch clamp assay; format: cell-based
[14] = Half life in Sprague-Dawley rat at 5 mg/kg, iv measured upto 24 hrs by LC/MS/MS analysis; format: ADME, organism-based; details: in vivo
[15] = Oral bioavailability in Sprague-Dawley rat at 5 mg/kg measured upto 24 hrs by LC/MS/MS analysis; format: ADME, organism-based; details: in vivo
[16] = Stability in human liver microsomes assessed as compound remaining at 1 uM incubated for 30 mins by LC/MS/MS analysis; format: ADME, Microsome; details: read-out: Stability
[17] = Protein binding in rat plasma assessed as compound remaining at 5 uM incubated for 4 hrs by LC/MS/MS analysis; format: ADME, cell-free; details: read-out: PPB
[18] = Volume of distribution at steady state in Sprague-Dawley rat at 5 mg/kg, iv measured upto 24 hrs by LC/MS/MS analysis; format: ADME, organism-based; details: in vivo, read-out: Vdss
Cytochrome P450 1A2 = target: T2, Cytochrome P450 1A2 (Homo sapiens, UniProt P05177); test: Inhibition of human CYP1A2 using phenacetin as substrate by LC/MS/MS analysis; format: ADME
T2 sequence (P05177 whole entry): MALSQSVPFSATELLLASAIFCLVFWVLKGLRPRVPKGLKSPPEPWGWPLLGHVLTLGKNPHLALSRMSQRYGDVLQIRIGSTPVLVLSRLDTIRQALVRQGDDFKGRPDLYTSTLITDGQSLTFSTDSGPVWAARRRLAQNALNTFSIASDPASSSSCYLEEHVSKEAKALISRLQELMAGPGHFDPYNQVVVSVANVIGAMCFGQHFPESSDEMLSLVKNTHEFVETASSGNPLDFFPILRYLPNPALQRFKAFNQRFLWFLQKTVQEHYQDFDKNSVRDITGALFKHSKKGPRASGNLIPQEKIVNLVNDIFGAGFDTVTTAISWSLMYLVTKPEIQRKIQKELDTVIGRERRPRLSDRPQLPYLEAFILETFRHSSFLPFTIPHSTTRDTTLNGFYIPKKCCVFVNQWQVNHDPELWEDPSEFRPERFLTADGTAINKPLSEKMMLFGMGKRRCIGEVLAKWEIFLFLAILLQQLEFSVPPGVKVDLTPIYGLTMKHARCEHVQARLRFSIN

[19] = target: T1, Voltage-gated inwardly rectifying potassium channel KCNH2; test: Inhibition of human ERG by competitive fluorescence polarization assay
Cytochrome P450 2C19 = Cytochrome P450 2C19 (Homo sapiens, UniProt P33261); test: Inhibition of human CYP2C19 using S-mephenytoin as substrate by LC/MS/MS analysis; format: ADME
Cytochrome P450 2C9 = Cytochrome P450 2C9 (Homo sapiens, UniProt P11712); test: Inhibition of human CYP2C9 using tolubutamide as substrate by LC/MS/MS analysis; format: ADME
Cytochrome P450 3A4 = Cytochrome P450 3A4 (Homo sapiens, UniProt P08684); test: Inhibition of human CYP3A4 using […] as substrate by LC/MS/MS analysis; format: ADME
Hepatitis B virus [20] = test: Potency index, ratio of EC50 of NVR3-778 to EC50 of compound for antiviral activity in HBV infected in human HepAD38 cells assessed as reduction in viral replication incubated for 65 hrs by RT-PCR analysis; format: functional
[21] = Cmax in Sprague-Dawley rat at 5 mg/kg, po measured upto 24 hrs by LC/MS/MS analysis; format: ADME, organism-based; parameters: dose 5 mg/kg, route oral; details: in vivo
[22] = AUC in Sprague-Dawley rat at 5 mg/kg, iv measured upto 24 hrs by LC/MS/MS analysis; format: ADME, organism-based; parameters: dose 5 mg/kg, time < 24 hr, route intravenous; details: in vivo
[23] = Stability in rat plasma assessed as compound remaining at 5 uM incubated for 4 hrs by LC/MS/MS analysis; format: ADME, cell-free; details: read-out: Stability
Hepatitis B virus [24] = test: Antiviral activity in HBV infected in human HepG2.2.15 cells assessed as reduction in viral replication incubated for 5 days by qPCR analysis; format: functional, organism-based; details: HepG2.2.15, 120 h

T1 sequence (Q12809 whole entry): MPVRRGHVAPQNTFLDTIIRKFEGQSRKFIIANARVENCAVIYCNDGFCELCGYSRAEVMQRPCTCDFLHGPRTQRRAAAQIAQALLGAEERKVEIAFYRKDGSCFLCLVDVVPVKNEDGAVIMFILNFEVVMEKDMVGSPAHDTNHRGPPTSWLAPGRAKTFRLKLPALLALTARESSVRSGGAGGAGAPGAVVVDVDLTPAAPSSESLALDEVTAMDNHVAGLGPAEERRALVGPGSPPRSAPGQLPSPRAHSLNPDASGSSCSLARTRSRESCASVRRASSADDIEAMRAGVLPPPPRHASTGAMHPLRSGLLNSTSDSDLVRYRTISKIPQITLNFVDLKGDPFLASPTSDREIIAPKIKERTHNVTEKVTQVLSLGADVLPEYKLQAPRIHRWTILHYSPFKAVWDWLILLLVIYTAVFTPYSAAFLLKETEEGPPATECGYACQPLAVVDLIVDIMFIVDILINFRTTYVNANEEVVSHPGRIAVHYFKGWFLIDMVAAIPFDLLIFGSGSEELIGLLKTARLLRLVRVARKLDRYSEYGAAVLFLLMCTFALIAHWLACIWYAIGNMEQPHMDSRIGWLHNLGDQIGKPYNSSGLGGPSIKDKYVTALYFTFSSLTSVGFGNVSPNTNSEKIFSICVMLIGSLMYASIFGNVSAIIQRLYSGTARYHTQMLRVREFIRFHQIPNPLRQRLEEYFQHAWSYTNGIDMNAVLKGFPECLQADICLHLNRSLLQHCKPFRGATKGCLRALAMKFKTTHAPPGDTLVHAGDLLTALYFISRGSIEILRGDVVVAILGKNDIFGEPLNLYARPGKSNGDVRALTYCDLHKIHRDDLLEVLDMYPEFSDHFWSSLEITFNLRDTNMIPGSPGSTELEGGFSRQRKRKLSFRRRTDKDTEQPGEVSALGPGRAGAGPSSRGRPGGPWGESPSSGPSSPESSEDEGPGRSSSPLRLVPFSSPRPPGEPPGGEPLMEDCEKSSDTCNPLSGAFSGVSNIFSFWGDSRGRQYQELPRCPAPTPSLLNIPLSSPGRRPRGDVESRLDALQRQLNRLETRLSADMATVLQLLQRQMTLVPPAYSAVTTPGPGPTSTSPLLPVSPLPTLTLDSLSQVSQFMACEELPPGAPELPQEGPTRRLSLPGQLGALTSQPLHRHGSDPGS
Sequence of Cytochrome P450 2C9 (P11712 whole entry): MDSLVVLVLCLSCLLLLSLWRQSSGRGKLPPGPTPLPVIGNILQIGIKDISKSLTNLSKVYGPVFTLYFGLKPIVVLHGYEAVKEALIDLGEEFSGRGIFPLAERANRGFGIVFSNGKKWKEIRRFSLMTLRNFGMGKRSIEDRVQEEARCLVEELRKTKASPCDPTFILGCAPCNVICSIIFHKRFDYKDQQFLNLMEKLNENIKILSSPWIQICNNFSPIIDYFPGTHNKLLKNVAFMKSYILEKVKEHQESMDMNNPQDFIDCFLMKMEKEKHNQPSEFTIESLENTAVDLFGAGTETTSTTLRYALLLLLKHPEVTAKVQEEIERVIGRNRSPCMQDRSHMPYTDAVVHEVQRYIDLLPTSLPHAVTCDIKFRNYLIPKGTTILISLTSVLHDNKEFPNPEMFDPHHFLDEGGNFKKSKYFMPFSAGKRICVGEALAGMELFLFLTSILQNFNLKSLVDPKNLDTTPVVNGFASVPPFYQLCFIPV
Sequence of Cytochrome P450 2D6 (P10635 whole entry): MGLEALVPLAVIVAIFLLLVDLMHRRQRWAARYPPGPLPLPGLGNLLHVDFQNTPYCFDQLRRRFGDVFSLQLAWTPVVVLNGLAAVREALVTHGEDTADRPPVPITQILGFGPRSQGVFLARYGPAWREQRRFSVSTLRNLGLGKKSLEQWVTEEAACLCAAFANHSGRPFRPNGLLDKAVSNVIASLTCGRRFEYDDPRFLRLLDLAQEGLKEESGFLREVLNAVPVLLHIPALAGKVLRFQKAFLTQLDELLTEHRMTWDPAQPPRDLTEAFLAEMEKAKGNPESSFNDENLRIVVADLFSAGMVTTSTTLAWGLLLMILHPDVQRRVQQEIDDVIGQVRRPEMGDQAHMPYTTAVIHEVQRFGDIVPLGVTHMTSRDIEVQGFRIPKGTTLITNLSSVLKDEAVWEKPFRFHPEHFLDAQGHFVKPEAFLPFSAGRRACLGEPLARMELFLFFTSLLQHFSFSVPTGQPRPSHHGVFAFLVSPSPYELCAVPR
Sequence of Cytochrome P450 2C19 (P33261 whole entry): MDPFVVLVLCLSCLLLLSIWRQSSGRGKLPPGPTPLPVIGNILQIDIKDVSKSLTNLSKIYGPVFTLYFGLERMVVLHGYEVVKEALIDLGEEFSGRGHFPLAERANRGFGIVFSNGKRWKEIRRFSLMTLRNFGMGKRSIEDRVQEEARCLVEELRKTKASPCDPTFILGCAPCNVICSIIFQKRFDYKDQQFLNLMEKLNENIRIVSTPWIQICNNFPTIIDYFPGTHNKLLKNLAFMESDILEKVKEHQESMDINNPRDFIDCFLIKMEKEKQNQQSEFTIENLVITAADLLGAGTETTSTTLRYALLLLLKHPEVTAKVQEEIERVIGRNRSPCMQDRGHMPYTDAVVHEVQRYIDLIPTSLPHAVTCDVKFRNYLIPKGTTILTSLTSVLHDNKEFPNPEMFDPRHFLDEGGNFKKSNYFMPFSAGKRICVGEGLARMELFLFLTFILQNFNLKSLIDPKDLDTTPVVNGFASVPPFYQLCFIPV
Sequence of Cytochrome P450 3A4 (P08684 whole entry): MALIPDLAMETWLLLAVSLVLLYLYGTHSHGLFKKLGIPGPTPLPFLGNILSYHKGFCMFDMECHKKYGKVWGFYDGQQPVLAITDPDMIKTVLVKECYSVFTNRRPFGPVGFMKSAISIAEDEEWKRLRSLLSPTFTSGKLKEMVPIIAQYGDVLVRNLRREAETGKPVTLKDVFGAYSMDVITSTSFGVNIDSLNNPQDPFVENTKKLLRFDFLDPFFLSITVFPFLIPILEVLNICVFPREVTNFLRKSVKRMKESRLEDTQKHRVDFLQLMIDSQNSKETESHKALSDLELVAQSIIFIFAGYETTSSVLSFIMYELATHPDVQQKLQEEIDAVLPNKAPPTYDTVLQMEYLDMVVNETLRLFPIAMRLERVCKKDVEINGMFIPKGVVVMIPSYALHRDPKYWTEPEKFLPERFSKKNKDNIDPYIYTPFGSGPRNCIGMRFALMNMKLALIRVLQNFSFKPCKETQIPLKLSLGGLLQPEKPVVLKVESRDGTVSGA

CN(C)c1ccc(S(=O)(=O)N2CCC(O)CC2)cc1C(=O)Nc1cc(F)c(F)c(F)c1
EC50 (Hepatitis B virus [1]): > 3.3 µM | CC50 at 65 h [2]: > 100 µM

O=C(Nc1cc(F)c(F)c(F)c1)c1cccc(S(=O)(=O)N2CCC(O)CC2)c1
EC50 (Hepatitis B virus [1]): 0.97 µM | CC50 at 65 h [2]: 77.7 µM

Nc1cc(F)c(S(=O)(=O)N2CCC(O)CC2)cc1C(=O)Nc1cc(F)c(F)c(F)c1
AUC(0-t) at 24 h [3]: 5.05 µg·h/mL | AUC at 24 h [4]: 5.09 µg·h/mL | IC50 (Cytochrome P450 2D6): 32.6 µM | half-life [5]: 3.44 h | Tmax [6]: 1.58 h | AUC(0-t) at 24 h [7]: 6.3 µg·h/mL | remaining at 4 h, 5 µM [8]: 71.9% | remaining at 0.5 h, 1 µM [9]: 49.2% | half-life at 1 µM [10]: 0.481 h | clearance [11]: 0.81 L/h/kg | fraction unbound at 4 h, 5 µM [12]: 0.0073 | EC50 (Hepatitis B virus [1]): 0.044 µM | IC50 [13]: 8.78 µM | half-life [14]: 6.67 h | bioavailability [15]: 80.2% | remaining at 0.5 h, 1 µM [16]: 50.2% | remaining at 4 h, 5 µM [17]: 98.7% | Vd [18]: 2.95 L/kg | IC50 (Cytochrome P450 1A2): 81.1 µM | IC50 [19]: 10.9 µM | CC50 at 65 h [2]: 48.9 µM | IC50 (Cytochrome P450 2C19): 23.1 µM | IC50 (Cytochrome P450 2C9): 17 µM | IC50 (Cytochrome P450 3A4): 27.8 µM | Ratio EC50 (Hepatitis B virus [20]): 9 | Cmax [21]: 0.94 µg/mL | AUC at 24 h [22]: 6.42 µg·h/mL | remaining at 4 h, 5 µM [23]: 90.1%

O=C(Nc1cc(F)c(F)c(F)c1)c1cc(Br)c(F)c(S(=O)(=O)N2CCC(O)CC2)c1
EC50 (Hepatitis B virus [1]): > 3.3 µM | CC50 at 65 h [2]: > 100 µM

O=C(Nc1cc(F)c(F)c(F)c1)c1cc(S(=O)(=O)N2CCC(O)CC2)ccc1O
EC50 (Hepatitis B virus [1]): > 3.3 µM | CC50 at 65 h [2]: > 100 µM

O=C(Nc1cc(F)c(F)c(F)c1)c1cc(S(=O)(=O)N2CCC(O)CC2)cc2cc[nH]c12
EC50 (Hepatitis B virus [1]): > 3.3 µM | CC50 at 65 h [2]: > 100 µM

Nc1cc(C(=O)Nc2cc(F)c(F)c(F)c2)cc(S(=O)(=O)N2CCC(O)CC2)c1F
EC50 (Hepatitis B virus [1]): 0.28 µM | CC50 at 65 h [2]: 87.9 µM

COc1ccc(S(=O)(=O)N2CCC(O)CC2)cc1C(=O)Nc1cc(F)c(F)c(F)c1
EC50 (Hepatitis B virus [1]): > 3.3 µM | CC50 at 65 h [2]: > 100 µM

Nc1ccc(S(=O)(=O)N2CCC(O)CC2)cc1C(=O)Nc1cc(F)c(F)c(F)c1
EC50 (Hepatitis B virus [1]): 0.24 µM | CC50 at 65 h [2]: 76.9 µM

O=C(Nc1cc(F)c(F)c(F)c1)c1ccc(F)c(S(=O)(=O)N2CCC(O)CC2)c1
EC50 (Hepatitis B virus [1]): 0.36 µM | EC50 (Hepatitis B virus [24]): 0.0064 µM | CC50 at 65 h [2]: 57.7 µM

CSc1ccc(S(=O)(=O)N2CCC(O)CC2)cc1C(=O)Nc1cc(F)c(F)c(F)c1
EC50 (Hepatitis B virus [1]): 0.72 µM | CC50 at 65 h [2]: > 100 µM

CNc1cc(F)c(S(=O)(=O)N2CCC(O)CC2)cc1C(=O)Nc1cc(F)c(F)c(F)c1
EC50 (Hepatitis B virus [1]): > 3.3 µM | CC50 at 65 h [2]: > 100 µM
